Experimental data: ChEMBL document CHEMBL3885881, “DrugMatrix”

Species on record: Rattus norvegicus
Test: DrugMatrix - Regimen: Daily Repeat
Type: toxicity, organism-based, Sprague-Dawley
Parameters: regimen Daily Repeat, gender Male, age 6-8 weeks
Details: in vivo, sc, route subcutaneous, […]; for ABSOLUTE BASOPHIL / ABSOLUTE EOSINOPHIL / ABSOLUTE LYMPHOCYTE / ABSOLUTE MONOCYTE / ABSOLUTE SEGMENTED NEUTROPHIL / BASOPHIL / EOSINOPHIL / ERYTHROCYTE COUNT / HEMATOCRIT / HEMOGLOBIN / LEUKOCYTE COUNT / LYMPHOCYTE / MEAN CORPUSCULAR HEMOGLOBIN / MEAN CORPUSCULAR HEMOGLOBIN CONCENTRATION / MEAN CORPUSCULAR VOLUME / MONOCYTE / NEUTROPHIL / NUCLEATED RED BLOOD CELLS / PLATELET COUNT: tissue Blood; for ALANINE AMINOTRANSFERASE / ALBUMIN / ALKALINE PHOSPHATASE / ASPARTATE AMINOTRANSFERASE / BLOOD UREA NITROGEN / CARBON DIOXIDE / CHLORIDE / CHOLESTEROL / CREATINE PHOSPHOKINASE / CREATININE / GLUCOSE / LACTATE DEHYDROGENASE / LIPASE / PHOSPHORUS / POTASSIUM / SODIUM / TOTAL BILIRUBIN / TOTAL PROTEIN / URIC ACID: tissue Plasma
[1] = 56 mg/kg, 120 h, dose level M1, time 5 day
[2] = 72 h, dose 5.6 mg/Kg, dose level Low, time 3 day
[3] = 120 h, dose 5.6 mg/Kg, dose level Low, time 5 day

## O=C(Nc1ccc(Br)cc1)c1cc(Br)cc(Br)c1O [TRIBROMSALAN]
[1]
  ABSOLUTE BASOPHIL: 0 CELLS/uL
  ABSOLUTE EOSINOPHIL: 183 CELLS/uL
  ABSOLUTE LYMPHOCYTE: 10057 CELLS/uL
  ABSOLUTE MONOCYTE: 145 CELLS/uL
  ABSOLUTE SEGMENTED NEUTROPHIL: 1315 CELLS/uL
  BASOPHIL: 0%
  EOSINOPHIL: 1%
  ERYTHROCYTE COUNT: 5.63 x10E6/uL
  HEMATOCRIT: 34.6%
  HEMOGLOBIN: 12.83 G/DL
  LEUKOCYTE COUNT: 11.7 x10E3/uL
  LYMPHOCYTE: 86.33%
  MEAN CORPUSCULAR HEMOGLOBIN: 22.8 pg
  MEAN CORPUSCULAR HEMOGLOBIN CONCENTRATION: 37.1 G/DL
  MEAN CORPUSCULAR VOLUME: 61.47 fL
  MONOCYTE: 1.33%
  NEUTROPHIL: 11.33%
  NUCLEATED RED BLOOD CELLS: 0 /100WBC
  PLATELET COUNT: 1090 x10E3/uL
  ALANINE AMINOTRANSFERASE: 51 u/L
  ALBUMIN: 3.77 G/DL
  ALKALINE PHOSPHATASE: 376.33 u/L
  ASPARTATE AMINOTRANSFERASE: 90 u/L
  BLOOD UREA NITROGEN: 16 mg/dL
  CARBON DIOXIDE: 24 mmol/L
  CHLORIDE: 99 MEQ/L
  CHOLESTEROL: 81.33 mg/dL
  CREATINE PHOSPHOKINASE: 578.33 u/L
  CREATININE: 0.19 mg/dL
  GLUCOSE: 142 mg/dL
  LACTATE DEHYDROGENASE: 171.33 u/L
  LIPASE: 7.33 u/L
  PHOSPHORUS: 11.13 mg/dL
  POTASSIUM: 6.14 MEQ/L
  SODIUM: 146.5 MEQ/L
  TOTAL BILIRUBIN: 0.23 mg/dL
  TOTAL PROTEIN: 6.23 G/DL
  URIC ACID: 1.13 mg/dL
[2]
  ABSOLUTE BASOPHIL: 0 CELLS/uL
  ABSOLUTE EOSINOPHIL: 0 CELLS/uL
  ABSOLUTE LYMPHOCYTE: 7670 CELLS/uL
  ABSOLUTE MONOCYTE: 0 CELLS/uL
  ABSOLUTE SEGMENTED NEUTROPHIL: 730 CELLS/uL
  BASOPHIL: 0%
  EOSINOPHIL: 0%
  ERYTHROCYTE COUNT: 4.92 x10E6/uL
  HEMATOCRIT: 32.37%
  HEMOGLOBIN: 12.33 G/DL
  LEUKOCYTE COUNT: 8.4 x10E3/uL
  LYMPHOCYTE: 91.67%
  MEAN CORPUSCULAR HEMOGLOBIN: 25.1 pg
  MEAN CORPUSCULAR HEMOGLOBIN CONCENTRATION: 38.13 G/DL
  MEAN CORPUSCULAR VOLUME: 65.77 fL
  MONOCYTE: 0%
  NEUTROPHIL: 8.33%
  NUCLEATED RED BLOOD CELLS: 0 /100WBC
  PLATELET COUNT: 800.67 x10E3/uL
  ALANINE AMINOTRANSFERASE: 47.33 u/L
  ALBUMIN: 4.3 G/DL
  ALKALINE PHOSPHATASE: 403.67 u/L
  ASPARTATE AMINOTRANSFERASE: 74.33 u/L
  BLOOD UREA NITROGEN: 15.33 mg/dL
  CARBON DIOXIDE: 24.33 mmol/L
  CHLORIDE: 101.67 MEQ/L
  CHOLESTEROL: 72.33 mg/dL
  CREATINE PHOSPHOKINASE: 270.67 u/L
  CREATININE: 0.18 mg/dL
  GLUCOSE: 163 mg/dL
  LACTATE DEHYDROGENASE: 143 u/L
  LIPASE: 8.33 u/L
  PHOSPHORUS: 13.13 mg/dL
  POTASSIUM: 6.25 MEQ/L
  SODIUM: 144.7 MEQ/L
  TOTAL BILIRUBIN: 0.3 mg/dL
  TOTAL PROTEIN: 5.97 G/DL
  URIC ACID: 2.13 mg/dL
[3]
  ABSOLUTE BASOPHIL: 0 CELLS/uL
  ABSOLUTE EOSINOPHIL: 126 CELLS/uL
  ABSOLUTE LYMPHOCYTE: 12819 CELLS/uL
  ABSOLUTE MONOCYTE: 78 CELLS/uL
  ABSOLUTE SEGMENTED NEUTROPHIL: 1743.67 CELLS/uL
  BASOPHIL: 0%
  EOSINOPHIL: 0.67%
  ERYTHROCYTE COUNT: 5.88 x10E6/uL
  HEMATOCRIT: 36.87%
  HEMOGLOBIN: 13.53 G/DL
  LEUKOCYTE COUNT: 14.77 x10E3/uL
  LYMPHOCYTE: 87%
  MEAN CORPUSCULAR HEMOGLOBIN: 23.07 pg
  MEAN CORPUSCULAR HEMOGLOBIN CONCENTRATION: 36.77 G/DL
  MEAN CORPUSCULAR VOLUME: 62.77 fL
  MONOCYTE: 0.67%
  NEUTROPHIL: 11.67%
  NUCLEATED RED BLOOD CELLS: 0 /100WBC
  PLATELET COUNT: 1236 x10E3/uL
  ALANINE AMINOTRANSFERASE: 46.33 u/L
  ALBUMIN: 4 G/DL
  ALKALINE PHOSPHATASE: 354.67 u/L
  ASPARTATE AMINOTRANSFERASE: 82.33 u/L
  BLOOD UREA NITROGEN: 17.67 mg/dL
  CARBON DIOXIDE: 27.33 mmol/L
  CHLORIDE: 101.67 MEQ/L
  CHOLESTEROL: 65.33 mg/dL
  CREATINE PHOSPHOKINASE: 261.33 u/L
  CREATININE: 0.2 mg/dL
  GLUCOSE: 152.67 mg/dL
  LACTATE DEHYDROGENASE: 145.67 u/L
  LIPASE: 8 u/L
  PHOSPHORUS: 11.87 mg/dL
  POTASSIUM: 6.3 MEQ/L
  SODIUM: 145.97 MEQ/L
  TOTAL BILIRUBIN: 0.13 mg/dL
  TOTAL PROTEIN: 5.97 G/DL
  URIC ACID: 1.5 mg/dL
